How the values were obtained:
Format in all cases: functional, cell-based
[1] = system: NALM-6; assay: Antiproliferative activity against human NALM6 leukemia cell line
[2] = system: L1210; assay: Antiproliferative activity against mouse L1210 leukemia cell line
[3] = system: HL-60; assay: Antiproliferative activity against human HL60 leukemia cell line

Compound: C=C1C(=O)ON(C)C1c1ccc2c(c1)OCO2 (configuration not stated)
- IC50 [1]: 4.2 µM
- IC50 [2]: 7 µM
- IC50 [3]: 6.6 µM

Compound: C=C1C(=O)ON(C)C1c1ccc(C)cc1 (configuration not stated)
- IC50 [1]: 5.8 µM
- IC50 [2]: 0.8 µM
- IC50 [3]: 5.4 µM

Compound: C=C1C(=O)ON(C)C1c1cccc2ccccc12 (configuration not stated)
- IC50 [1]: 4.2 µM
- IC50 [2]: 3.2 µM
- IC50 [3]: 5.6 µM

Compound: C=C1C(=O)ON(C)C1C(C)C (configuration not stated)
- IC50 [1]: 4.16 µM
- IC50 [2]: 2.63 µM
- IC50 [3]: 0.74 µM

Compound: C=C1C(=O)ON(C)C1C(C)CCC (configuration not stated)
- IC50 [1]: 0.34 µM
- IC50 [2]: 1.9 µM
- IC50 [3]: 4.7 µM

Compound: C=C1C(=O)ON(C)C1c1ccccc1 (configuration not stated)
- IC50 [1]: 4.96 µM
- IC50 [2]: 5.5 µM
- IC50 [3]: 34.8 µM

Compound: C=C1C(=O)ON(C)C1c1ccc(Br)cc1 (configuration not stated)
- IC50 [1]: 4.6 µM
- IC50 [2]: 0.7 µM
- IC50 [3]: 5.1 µM

Compound: C=C1C(=O)ON(C)C1c1ccc([N+](=O)[O-])cc1 (configuration not stated)
- IC50 [1]: 5.2 µM
- IC50 [2]: 0.8 µM
- IC50 [3]: 7.4 µM

Compound: C=C1C(=O)ON(C)C1c1ccc(OC)cc1 (configuration not stated)
- IC50 [1]: 5.5 µM
- IC50 [2]: 3.5 µM
- IC50 [3]: 5.4 µM
